Measurements reported in PubChem BioAssay AID1996.
Converted amounts (≈) assume the structure as drawn.

Conditions: buffer; pH 7.4; 200.0 µM

SMILES | solubility kinetic
Cc1cccc(OCCC(=O)Nc2ccc(C)c(S(=O)(=O)N3CCOCC3)c2)c1 | 21.5 µg/mL (≈ 51.4 µM)
CC(NC(=O)CNC(=O)c1ccccc1Br)c1cccs1 (configuration not stated) | > 55.1 µg/mL
Cc1ccc(-c2csc(NC(=O)c3cnccn3)n2)cc1C | < 0.2 µg/mL
COc1cc2c(cc1OC)CN(c1ccc(C(F)(F)F)cn1)CC2 | 34.9 µg/mL (≈ 103 µM)
O=[N+]([O-])c1ccc(Oc2cccc3cccnc23)c(Cl)c1 | 14.1 µg/mL (≈ 46.9 µM)
O=C(Nc1ncccn1)c1cccc(Cl)c1 | 23.6 µg/mL (≈ 101 µM)
COc1ccc(C(=O)OCC(=O)NC(=O)NC2CCCC2)cc1[N+](=O)[O-] | 6.4 µg/mL (≈ 17.5 µM)
N#CCC(=O)N1CCN(Cc2ccc3c(c2)OCO3)CC1 | 1.6 µg/mL (≈ 5.57 µM)
CCNCCNc1ccc([N+](=O)[O-])c2cccnc12 | 36.4 µg/mL (≈ 140 µM)
CN(C(=O)CSc1nc2c(c(=O)[nH]1)CCC2)c1ccccc1 | > 47.3 µg/mL
CCOc1ccccc1CN1C(=O)C2(OCCO2)c2ccccc21 | 5.2 µg/mL (≈ 16 µM)
Cc1ccc(S(=O)(=O)NC2CC2)cc1[N+](=O)[O-] | > 38.4 µg/mL
CC1(C)Cc2c(sc3nc(SCC(=O)O)nc(N)c23)CO1 | > 48.8 µg/mL
Cc1ccc(S(=O)(=O)N2CC(O)CC2C(=O)OCC(=O)Nc2ccc([N+](=O)[O-])cc2C(F)(F)F)cc1C (configuration not stated) | 76.5 µg/mL (≈ 140 µM)
CN(C)c1ccc(C(=O)OCC(=O)Nc2cccc(S(=O)(=O)N3CCCC3)c2)cc1 | 5.5 µg/mL (≈ 12.7 µM)
Cc1cc(-c2ccccc2)nc2oc3c(c12)NC(=O)CN(c1ccccc1)C3=O | < 0.3 µg/mL
CCN(CC)S(=O)(=O)c1cccc(C(=O)NC(C(=O)NCCc2ccccn2)C(C)C)c1 (configuration not stated) | > 69.1 µg/mL
CC(=O)N1CCN(C(=O)C2CCN(S(=O)(=O)c3ccccc3C(F)(F)F)CC2)CC1 | > 67.1 µg/mL
Cc1cccc(C)c1OP(N)(=O)Oc1c(C)cccc1C | 10.8 µg/mL (≈ 35.4 µM)
Clc1ncccc1OCc1ccccc1 | 14.6 µg/mL (≈ 66.5 µM)
Cc1ccc2oc(=O)cc(CN3CC(C)OC(C)C3)c2c1 (configuration not stated) | > 43.1 µg/mL
CCc1cccc(OCC(=O)Nc2c[nH]c(=O)[nH]c2=O)c1 | 0.9 µg/mL (≈ 3.11 µM)
CN(c1ccccc1)c1nc(N)c([N+](=O)[O-])c(N2CCCCCC2)n1 | 2.6 µg/mL (≈ 7.59 µM)
CCCC(=O)OCC(=O)Nc1ccc2c(c1)OCO2 | 37.2 µg/mL (≈ 140 µM)

SMILES | solubility kinetic
O=C(c1ccccc1)c1ccccc1NC(=O)C1CCCN1Cc1ccccc1 (configuration not stated) | 2.6 µg/mL (≈ 6.76 µM)
CC(Cl)C(=O)Nc1c2c(nn1-c1ccccc1)CSC2 (configuration not stated) | > 46.2 µg/mL
CC1CCc2sc(C(=O)OCC(=O)NC(N)=O)cc2C1 (configuration not stated) | 2 µg/mL (≈ 6.75 µM)
Cc1ccc(-n2c(O)c(C=NCC3CCCO3)c(=O)[nH]c2=O)c(C)c1 (configuration not stated) | > 51.5 µg/mL
O=C(CN1C(=O)NC2(CCOc3ccccc32)C1=O)c1ccc(Cl)cc1 (configuration not stated) | 1.3 µg/mL (≈ 3.51 µM)
CN(C(=O)CSc1ccc2c(c1)OCCO2)c1ccccc1 | > 47.3 µg/mL
CCOC(=O)CN1C(=O)C(=O)N(Cc2c(C)cc(C)cc2C)C1=O | 14 µg/mL (≈ 42.1 µM)
CC(NCC(=O)Nc1ccccc1C(=O)NC1CC1)c1cccs1 (configuration not stated) | > 51.5 µg/mL
CC1(C)CN(C(Cc2ccccc2)C(N)=O)C1=O (configuration not stated) | > 36.9 µg/mL
Cc1ccc(-n2c(C)nc3ccsc3c2=O)cc1 | > 38.4 µg/mL
O=C(CSc1nc2sc3c(c2c(=O)[nH]1)CCC3)NCCO | > 48.8 µg/mL
O=C(Nc1ccccc1)Nc1ccccc1C(=O)NCC1CC1 | 5.1 µg/mL (≈ 16.5 µM)
O=C1CS/C(=N\NC(=O)c2ccccc2)N1 | > 35.3 µg/mL
CCOC(=O)N1CCN(S(=O)(=O)c2ccc3[nH]c(=O)oc3c2)CC1 | 45.6 µg/mL (≈ 128 µM)
CCNCC(=O)Nc1c(C)cccc1C | 25.2 µg/mL (≈ 122 µM)
CC(=O)Nc1ccc(NS(=O)(=O)c2ccc(C)cc2)cc1[N+](=O)[O-] | > 52.4 µg/mL
COc1cccc(NC(=O)Nc2nc(SC)ns2)c1 | 1.3 µg/mL (≈ 4.39 µM)
COc1ccc(S(=O)(=O)N2CCOCC2)cc1NC(=O)Cc1ccsc1 | 7.6 µg/mL (≈ 19.2 µM)
CN(CC(=O)Nc1ccc(S(N)(=O)=O)cc1)C1CCCCC1 | > 48.8 µg/mL
CC(=O)c1ccc(/C=C/c2nc3ccccc3n2C)o1 | > 39.9 µg/mL
O=C(CNC(=O)c1ccc(Br)o1)NCc1cccc(Cl)c1 | 55.5 µg/mL (≈ 149 µM)
O=[N+]([O-])c1ccc(CN2CCN(c3ccc([N+](=O)[O-])cc3)CC2)cc1 | 2 µg/mL (≈ 5.84 µM)
COC(=O)CSc1nc(NC(C)C)nc(N(C)C)n1 | 36.6 µg/mL (≈ 128 µM)
O=C(COC(=O)C1CC2CCCC(C1)C2=O)Nc1ccc(F)c(Cl)c1 (configuration not stated) | 54.9 µg/mL (≈ 149 µM)

SMILES | solubility kinetic
Cc1cccc(C(=O)Oc2cc(C)[nH]c(=O)c2[N+](=O)[O-])c1 | > 43.2 µg/mL
Cc1cccc(C(=O)OCC(=O)NCCCc2ccccc2)c1O | 12.3 µg/mL (≈ 37.6 µM)
Cc1cc[n+](CC(=O)Nc2cccc(C)c2)cc1.[Cl-] | > 41.5 µg/mL
CN(c1cccc2cccnc12)S(=O)(=O)c1ccccc1 | 40.7 µg/mL (≈ 136 µM)
CCOC(=O)C1=C(C)N(C)C(C)=C(C(=O)OCC)C1c1ccsc1 | 2 µg/mL (≈ 5.72 µM)
Cc1cccc(Cc2ncc(C(F)(F)F)cc2Cl)c1 | < 0.6 µg/mL
NC(=O)c1ccc(N=C2C(=O)Nc3ccc([N+](=O)[O-])cc32)cc1 | 13.1 µg/mL (≈ 42.2 µM)
O=C1N=C(N2CCc3ccccc3C2)S/C1=C\c1ccc(O)cc1 | 3.4 µg/mL (≈ 10.1 µM)
CCCn1c(N)c(CC)c(=O)[nH]c1=O | > 29.6 µg/mL
CCOc1ccccc1Nc1cc(C)nc2ccc(C)cc12 | > 43.9 µg/mL
O=C(c1cccc2ccccc12)N1CCCCC1 | 34.9 µg/mL (≈ 146 µM)
CN=C1S/C(=C\c2ccc(SC)cc2)C(=O)N1C | 1.4 µg/mL (≈ 5.03 µM)
O=C(Cc1ccc(-c2ccccc2)cc1)Nc1ccccn1 | 12 µg/mL (≈ 41.6 µM)
O=C(Nc1cccc(NC(=O)c2ccc([N+](=O)[O-])o2)c1)c1ccco1 | 4.5 µg/mL (≈ 13.2 µM)
O=C(O)c1cccc(S(=O)(=O)Nc2ccc(N3CCCCC3)cc2)c1 | > 54.1 µg/mL
CCc1ccccc1NC(=S)N(CCN(C)C)Cc1cccs1 | 45.6 µg/mL (≈ 131 µM)
CCc1cc(=O)[nH]c(SCC(=O)N2CCCC2)n1 | > 40.1 µg/mL
CCCCC1(C)NC(=O)N(CC(=O)N2CCc3ccccc32)C1=O (configuration not stated) | > 49.4 µg/mL
CCCSC1=C(C#N)C2(CCCCC2)C(C#N)=C(N)N1 | > 43.3 µg/mL
COc1cn(-c2ccccc2)nc1C(=O)NCc1ccccc1 | > 46.1 µg/mL
COc1ccc(CCNCc2sccc2C)cc1.Cl | > 44.7 µg/mL
O=C(O)CN1CCN(Cc2ccc(F)cc2)C1=O | > 37.8 µg/mL
CC(C[N+](C)(C)C)OC(=O)C1(c2ccccc2)CCCC1 (configuration not stated) | 34.7 µg/mL
CC(C)(C)C1CCc2onc(C(=O)O)c2C1 (configuration not stated) | > 33.5 µg/mL

SMILES | solubility kinetic
CN(C)CCCN=C(NO)c1ccc(Cl)cc1Cl | 40.5 µg/mL (≈ 140 µM)
O=C(Nc1ccc(F)cc1F)N1CCCCCC1 | > 38.1 µg/mL
Cc1cc(C)nc(/N=C(\N)Nc2ccc(C(C)C)cc2)n1 | > 42.5 µg/mL
COCC(C)NC(=S)NCCc1ccc(Cl)cc1Cl (configuration not stated) | > 48.2 µg/mL
O=C(COC(=O)c1ccc(Cl)c([N+](=O)[O-])c1)NC1CCCC1 | 7.6 µg/mL (≈ 23.3 µM)
O=C(CNC(=O)c1ccc(Cl)cc1)OCN1C(=O)c2ccccc2C1=O | 7.7 µg/mL (≈ 20.7 µM)
Cc1ccc(NC(=O)c2ccc(OCc3c(C)noc3C)cc2)cc1C | 6.7 µg/mL (≈ 19.1 µM)
CCOc1ccc(NC(=S)NC(=O)Cc2ccccc2)cc1 | 1.8 µg/mL (≈ 5.73 µM)
Cc1cc(C(=O)N2CCOCC2)c(C)o1 | > 31.4 µg/mL
O=C(COC(=O)c1ccccc1Cl)NCc1ccco1 | > 44.1 µg/mL
CCOC(=O)C1CCN(C(=O)COc2ccc3c(c2)OCO3)CC1 | > 50.3 µg/mL
COc1ccc(NC(=O)CC2(CC(=O)O)CCCC2)cc1 | 43.6 µg/mL (≈ 150 µM)
C=C(C)c1ccccc1NC(=O)CCN1C(=O)c2ccccc2S1(=O)=O | > 55.6 µg/mL
CCOC(=O)N1CCN(C(=O)COC(=O)c2cc(Cl)cc(Cl)c2)CC1 | 57.2 µg/mL (≈ 147 µM)
Cc1ccc(NC(=O)CN2CCOCC2)cc1 | > 35.1 µg/mL
Cc1cc(NC(=O)CSc2nnc(C)n2-c2ccccc2C)no1 | > 51.5 µg/mL
COc1cccc(NC(=O)COC(=O)C2CCCCC2)c1 | > 43.7 µg/mL
CN(CCc1ccccn1)C(=O)c1cccnc1Oc1ccccc1 | > 50 µg/mL
O=C1Nc2ccccc2/C1=C\C(=O)c1ccccc1 | 5.1 µg/mL (≈ 20.5 µM)
CCOC(=O)Cc1cc(=O)[nH]c(/N=C(\N)Nc2ccc(OC)cc2)n1 | 6.2 µg/mL (≈ 18 µM)
O=C(NCC(=O)N1CCN(Cc2ccc3c(c2)OCO3)CC1)c1ccccc1F | 1.4 µg/mL (≈ 3.51 µM)
CC(C)[C@H](NC(=O)c1ccc(Cl)cc1)C(=O)OCC(=O)N1CCN(c2ccccc2)CC1 | 52.5 µg/mL (≈ 115 µM)
COc1ccc(NC(=O)CN2CCCCC2)cc1S(=O)(=O)N1CCCCC1.O=C(O)C(=O)O | > 72.8 µg/mL
O=C(NCc1ccco1)C1CC(c2ccc(Cl)c(Cl)c2)=NO1 (configuration not stated) | 1.4 µg/mL (≈ 4.13 µM)

SMILES | solubility kinetic
COc1cc(/C=C(\C#N)C(=O)NC(C)C)cc(Cl)c1O | 28.4 µg/mL (≈ 96.4 µM)
O=C(CSc1nc(O)c(Cc2ccccc2)c(=O)[nH]1)N1CCOCC1 | 40.2 µg/mL (≈ 111 µM)
Cc1cc(C)cc(N2C(N)=NC(N)=NC2c2ccccc2F)c1.Cl (configuration not stated) | > 52.2 µg/mL
Clc1ccccc1NC1=NCCCS1 | > 34 µg/mL
CC1(C)CC2(CCO1)C(Nc1ccccc1)=NC(=S)N2CC(N)=O (configuration not stated) | > 52 µg/mL
COc1cccc(/C=C/c2[nH]c(=O)[nH]c(=O)c2[N+](=O)[O-])c1O | > 45.8 µg/mL
O=C(Nc1ccc2c(c1)OCCO2)C(=O)NC1CC1 | 30.8 µg/mL (≈ 117 µM)
COCCNC(=S)N(C)C1(c2ccccc2Cl)CCCCC1=O (configuration not stated) | 48.2 µg/mL (≈ 136 µM)
O=S(=O)(NC1Cc2ccccc2C1)c1ccccc1 | > 41 µg/mL
O=C(O)c1cccc(S(=O)(=O)Nc2ccc(Cc3ccncc3)cc2)c1 | > 55.3 µg/mL
Cc1ccc(F)cc1NC(=O)c1ccc(OCC2CCCO2)cc1 (configuration not stated) | > 49.4 µg/mL
Cc1cc(OCC(=O)NC2CC2)c2c(C)c(C)c(=O)oc2c1 | 2.5 µg/mL (≈ 8.3 µM)
CC12CCC(C/C1=N\OC(=O)c1c(F)cccc1F)C2(C)C (configuration not stated) | 21.5 µg/mL (≈ 70 µM)
O=C(Cc1ccc(Cl)cc1)NCCc1cnc[nH]1 | > 39.6 µg/mL
Nc1ccccc1C(=O)NC12CC3CC(CC(C3)C1)C2 | 28.7 µg/mL (≈ 106 µM)
CC1(C)C(=O)N(c2ccccc2Cl)C(=O)c2ccccc21 | 44.3 µg/mL (≈ 148 µM)
COc1ccc(CCC(C)NCc2ccc(Cl)c(Cl)c2)cc1 (configuration not stated) | 17.3 µg/mL (≈ 51.1 µM)
O=C(Nc1ccc(F)cc1)N1CCCN(c2ccc(C(F)(F)F)cn2)CC1 | 2.2 µg/mL (≈ 5.75 µM)
Cc1ccc(NC(=O)COCC(=O)Nc2ccc(F)cc2)cc1 | 37.3 µg/mL (≈ 118 µM)
COc1ccccc1C(=O)NCCSCc1ccccc1Cl | 15.1 µg/mL (≈ 45 µM)
Nc1ccccc1C(O)(Cc1ccccc1)c1ccccc1 (configuration not stated) | 17.3 µg/mL (≈ 59.8 µM)
